Legend:
[1] = system: rats fed a diet rich in cholesterol; conditions: cited from earlier work
hemoglobin = hemoglobin (Homo sapiens, UniProt P68871+P69905); conditions: synergistic with 2,3-bisphosphoglycerate; cited from earlier work
CML-AGE = experiment: Immunohistochemical staining of renal CML-AGE accumulation; assay type: in vivo, rat; conditions: diabetic rats, increasing concentrations; 25 and 50 mg/L best inhibitory effects
Excerpt: (§1) Formalin-fixed […] embedded kidney sections ([…]) were mounted on slides and stained with 6D12 monoclonal anti-CML-AGE, polyclonal rabbit anti-RAGE and polyclonal goat anti-nitrotyrosine antibodies as described before (25). […] Similarly, RAGE protein expression in the glomeruli was visibly higher in diabetic rats compared with non-diabetic animals (FIG. 5).

RAGE [2] = experiment: Immunohistochemical staining of renal RAGE protein expression; assay type: in vivo, rat; conditions: diabetic rats, increasing concentrations; 25 and 50 mg/L best inhibitory effects
Excerpt: as §1

[3] = system: NADPH oxidase (gp91^phox subunit); experiment: S100b-induced NADPH oxidase mRNA expression on THP-1 monocytes (RT-PCR); assay type: cell-based, human; conditions: THP-1, pre-treated 1 hr with 25-200 ug/ml, S100b 4 hr; statistically significant at 100 and 200 ug/ml
Description: (§2) Human THP-1 monocytic cells were obtained from the American Type Culture Collection and cultured as described (27) in RPMI 1640 medium supplemented with 10% fetal calf serum (FCS), glutamine, HEPES, streptomycin/penicillin ([…]/100 units/ml), 50 uM-mercaptoethanol, and 5.5 mM D-glucose in a 5% CO2 incubator at 37° C. THP-1 cells (5×10^5 cells/ml) in 4 ml of medium were pre-treated with various concentrations of LR-90 (0, 25, 50, 100 and 200 ug/ml; prepared in 20 mM stock solution in DMSO) for 1 hr. Control cells received DMSO vehicle only. Thereafter, S100b ([…]) was added and cells re-incubated for 4 hr. The cell suspension was then centrifuged at 200 g, the supernatant was removed and the cell pellet was frozen at −70° C. for subsequent RNA extraction.
(§3) RNA Extraction and Relative RT-PCR-Total RNA was isolated by the RNA-STAT-60 reagent method (Teltest, Friendswood, Tex.), and […] was used for the RT reaction using a Gene Amp RNA PCR kit. […] PCR products were fractionated on 2.5% agarose gels, photographed using Alpha Imager 2000, and analyzed with Quantity 1 software (Bio-Rad Laboratories, Hercules, Calif.). Results were expressed as fold stimulation over control after normalizing with paired 18S RNA gene.
(§4) Data Analyses. […] Group comparisons were analyzed using one-way ANOVA and subsequent post-hoc analysis by Tukey's test. […]

STZ-diabetic rats [4] = experiment: Total plasma triglycerides and cholesterol in STZ-diabetic rats; assay type: in vivo, rat
Description: Animal studies were carried out in compliance with policies outlined in “The Guide for the care and Handling of Laboratory Animals” (NIH Publication No. 85-23), which have been approved by the City of Hope National Medical Center Animal Care Committee. Induction of diabetes by STZ and all other procedures were according to the previously published article on LR-90 (25), except that in the present study the diabetic rats under treatment were randomized in 5 groups of ten each: one diabetic control group (0 mg/L), […] (FIG. 1). Both plasma glucose and body weight were checked before administration of the drug, and no differences were detected among the two non-diabetic groups and five diabetic treatment groups. All animals were housed individually and were given free access to food (Purina rodent chow 5001, Ralston Purina, Richmond, Ind., USA) and water. Glycemic control and body weights were monitored periodically. In order to limit hyperglycemia and ensure that animals maintained body weight, diabetic animals received 3 IU of ultralente insulin (Humulin U, Eli Lilly, Indianapolis, Ind., USA) two to three times per week. The study was carried out over 32 weeks.
(§5) Blood (from the tail vein) and urine samples were collected from rats for glycemic control analysis and albuminuria measurements. Plasma glucose was measured using a glucose analyzer machine (YSI 2300 STAT, Yellowsprings, Ohio, USA). HbAlc concentration was measured by HPLC (BioRad DIAMAT, Hercules, Calif., USA). Total plasma triglycerides and cholesterol concentrations were quantified at the end of the study using the Vitros 250 Chemistry System (Johnson & Johnson, Rochester, N.Y., USA). Progression of renal dysfunction was assessed by measuring urinary albumin-to-creatinine ratio (ACR). Rats were housed in metabolic cages (Nalge, Rochester, N.Y., USA) for 24 hr and urine was collected in a collection beaker with several drops of toluene to inhibit microbial growth. Urinary albumin and creatinine concentrations were quantified immunologically using the Nephrat/Creatinine Companion kits (Exocell), and the ACR value was calculated for each rat.

STZ-diabetic rats [5] = experiment: Body weight, glycemic control and albuminuria in STZ-induced diabetic rats given LR-90 in drinking water for 32 weeks; assay type: in vivo, rat
Description: (§6) Animal studies were carried out in compliance with policies outlined in “The Guide for the care and Handling of Laboratory Animals” (NIH Publication No. 85-23), which have been approved by the City of Hope National Medical Center Animal Care Committee. Induction of diabetes by STZ and all other procedures were according to the previously published article on LR-90 (25), except that in the present study the diabetic rats under treatment were randomized in 5 groups of ten each: one diabetic control group (0 mg/L), one group receiving 2.5 mg/L, one group receiving 10 mg/L, a third group receiving 20 mg/L and a fourth group receiving 50 mg/L of LR-90 in drinking water (FIG. 1). Both plasma glucose and body weight were checked before administration of the drug, and no differences were detected among the two non-diabetic groups and five diabetic treatment groups. All animals were housed individually and were given free access to food (Purina rodent chow 5001, Ralston Purina, Richmond, Ind., USA) and water. Glycemic control and body weights were monitored periodically. In order to limit hyperglycemia and ensure that animals maintained body weight, diabetic animals received 3 IU of ultralente insulin (Humulin U, Eli Lilly, Indianapolis, Ind., USA) two to three times per week. The study was carried out over 32 weeks.
as §5
(§7) At the end of study, the rats were weighed and anaesthetized with isofluorane and blood was drawn by heart puncture and transferred into heparinized and non-heparinized vacutainer tubes on ice. These blood samples were later centifuged for plasma and serum collection respectively, and stored at −70° C. until the time of analysis. Rats were killed by over-anesthetization and cardiac puncture and the kidneys were removed immediately, weighed, decapsulated and rinsed in PBS buffer. Sections of the kidneys were stored in 10% NBF for subsequent microscopic examinations and immunohistochemistry.
(§8) Statistical analyses were performed using Prism software (GraphPad, San Diego, Calif., USA). Unless otherwise indicated, data are presented as Means±Std. Group comparisons were analyzed using one-way ANOVA and subsequent post-hoc analysis by Tukey's test. A P value of less than 0.05 was considered statistically significant.

MCP-1 [6] = experiment: Secreted MCP-1 levels of THP-1 cells by ELISA; assay type: cell-based, human; conditions: THP-1 supernatants
Description: Measurement of MCP-1 levels by ELISA. Supernatants of THP-1 cells (5×10^5 cells/ml) cultured in RPMI 1640 medium containing 2% FBS for 18 hrs under control or LR-90 treated conditions were used to assay secreted MCP-1 levels using the Quantikine ELISA kit. Medium alone without cells was incubated under the same conditions and used as blank control for the ELISA.
as §8, with “Data Analyses. Statistical” for “Statistical”

kidneys of diabetic rats = experiment: Kidney histology (PAS and Trichrome staining) in STZ-diabetic rats; assay type: in vivo, rat
Description: as §7

COX-2 = experiment: S100b-induced COX-2 mRNA expression on THP-1 monocytes (RT-PCR); assay type: cell-based, human; conditions: THP-1, pre-treated 1 hr with 25-200 ug/ml, S100b 4 hr; statistically significant at 100 and 200 ug/ml
Description: as §2, §3, §4

RAGE [7] = experiment: S100b-induced RAGE mRNA expression on THP-1 monocytes (RT-PCR); assay type: cell-based, human; conditions: THP-1, pre-treated 1 hr with 25-200 ug/ml, S100b 4 hr; statistically significant at 100 and 200 ug/ml
Description: as §2, §3, §4

THP-1 cells = experiment: Cell viability test on THP-1 cells (cell counter, Trypan Blue); assay type: cell-based, human
Description: Cell Viability Test—THP-1 cells were seeded onto 6-well plates at a concentration of ˜5×10^5/ml in RPMI medium containing 10% FCS as above, and then incubated with various concentrations of LR-90 or control medium alone for 24 hr at 37° C., 5% CO2. After incubation, overall cell counts were measured using a cell counter (Coulter Z1 Cell and Particle Counter, Beckman Coulter Inc., Fullerton, Calif.), and the number of viable cells determined by hemocytometer counts of Trypan Blue—impermeable cells.

non-diabetic rats = experiment: Non-diabetic control rats given LR-90 in drinking water for 32 weeks; assay type: in vivo, rat
Description: as §6, §5
At the end of study, the rats were weighed and anaesthetized with isofluorane and blood was drawn by heart puncture and transferred into heparinized and non-heparinized vacutainer tubes on ice. These blood samples were later centifuged for plasma and serum collection respectively, and stored at −70° C. until the time of analysis. […]
Statistical analyses were performed using Prism software (GraphPad, San Diego, Calif., USA). […] Group comparisons were analyzed using one-way ANOVA and subsequent post-hoc analysis by Tukey's test. […]

STZ-diabetic rats [8] = experiment: Body weight, glycemic control and albuminuria in STZ-induced diabetic rats given LR-90 in drinking water for 32 weeks; assay type: in vivo, rat; remark: listed apart in the source
MCP-1 [9] = experiment: S100b-induced MCP-1 mRNA expression on THP-1 monocytes (RT-PCR); assay type: cell-based, human; conditions: THP-1, pre-treated 1 hr with 25-200 ug/ml, S100b 4 hr; statistically significant at 100 and 200 ug/ml
Description: as §2, §3, §4

[10] = streptozotocin-induced diabetic rats, summary statement
[11] = 2.5 mg per liter drinking water daily
[12] = 10 mg per liter drinking water daily
[13] = 50 mg per liter drinking water daily
[14] = marked difference at 25 and 50 mg/L
[15] = non-diabetic rats, 50 mg per liter drinking water daily
[16] = 25 mg per liter drinking water daily

Chain of hemoglobin (P69905 2-142 limits assumed): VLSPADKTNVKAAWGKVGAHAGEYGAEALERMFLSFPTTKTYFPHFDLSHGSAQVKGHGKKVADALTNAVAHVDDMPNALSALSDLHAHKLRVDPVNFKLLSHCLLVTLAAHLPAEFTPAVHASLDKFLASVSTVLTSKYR
Chain of hemoglobin (P68871 2-147 limits assumed): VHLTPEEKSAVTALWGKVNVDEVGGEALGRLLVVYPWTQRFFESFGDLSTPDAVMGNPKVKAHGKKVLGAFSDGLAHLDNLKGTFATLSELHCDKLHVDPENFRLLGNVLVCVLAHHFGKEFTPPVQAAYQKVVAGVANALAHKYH

Q: For “N-4-(nitrophthalimido)phenoxyisobutyric acid [LR-16]”, which “low-density lipoproteins (LDL)” value [1] is on record?
A: lower

Q: What about the serum cholesterol [1] of the same compound?
A: lower

Q: And the “effect on oxygen affinity of hemoglobin molecules” value (hemoglobin)?
A: allosteric effector

Q: Which “CML-AGE accumulation in kidney glomeruli and cortical tubules” value (CML-AGE) does the source give for `CC(C)(Oc1ccc(NC(=O)Nc2ccc(Cc3ccc(NC(=O)Nc4ccc(OC(C)(C)C(=O)O)cc4)c(Cl)c3)cc2Cl)cc1)C(=O)O` [LR-90] here?
A: visibly reduced

Q: And the “RAGE protein expression in the glomeruli” value (RAGE [2])?
A: visibly reduced

Q: What about the “S100b-induced NADPH oxidase mRNA expression” value [3] of the same compound?
A: profoundly suppressed

Q: What about the “reduction in triglyceride concentration” value (STZ-diabetic rats [4]; diabetic rats, 25 mg/L) of the same compound?
A: ≥ 60%

Q: And the “reduction in triglyceride concentration” value (STZ-diabetic rats [4]; diabetic rats, 50 mg/L)?
A: ≥ 60%

Q: And the “cholesterol concentration relative to non-diabetic animals” value (STZ-diabetic rats [4]; diabetic rats, all concentrations tested with the exception of 10 mg/L)?
A: nearly normalized

Q: What about the “reduction in triglyceride concentration” value (STZ-diabetic rats [4]; diabetic rats, lowest concentration (25 mg/L) tested) of the same compound?
A: ~50%

Q: What about the “reduction of increased concentration of cholesterol” value (STZ-diabetic rats [4]; [10]) of the same compound?
A: more than 50%

Q: And the “reduction of increased concentration of triglycerides” value (STZ-diabetic rats [4]; [10])?
A: more than 50%

Q: What about the “ACR (urinary albumin-to-creatinine ratio)” value (STZ-diabetic rats [5]; [11]) of the same compound?
A: 2.35 ± 1.96 mg/mg

Q: What about the HbA1c (STZ-diabetic rats [5]; [11]) of the same compound?
A: 2.6 ± 0.6 %

Q: What about the “Plasma Glucose” value (STZ-diabetic rats [5]; [11]) of the same compound?
A: 29.9 ± 5.9 mmol/L

Q: What about the “ACR (urinary albumin-to-creatinine ratio)” value (STZ-diabetic rats [5]; [12]) of the same compound?
A: 2.60 ± 1.74 mg/mg

Q: What about the HbA1c (STZ-diabetic rats [5]; [12]) of the same compound?
A: 3.0 ± 0.4 %

Q: And the “Plasma Glucose” value (STZ-diabetic rats [5]; [12])?
A: 30.8 ± 2.9 mmol/L

Q: What about the HbA1c (STZ-diabetic rats [5]; [13]) of the same compound?
A: 3.0 ± 0.2 %

Q: What about the “Plasma Glucose” value (STZ-diabetic rats [5]; [13]) of the same compound?
A: 31.6 ± 3.9 mmol/L

Q: What about the “ACR (urinary albumin-to-creatinine ratio)” value (STZ-diabetic rats [5]; 50 mg per liter drinking water daily, p < 0.05 vs. diabetic rats) of the same compound?
A: 1.39 ± 1.17 mg/mg

Q: And the “effect on HbAlc concentration” value (STZ-diabetic rats [5]; various doses)?
A: no affect

Q: What about the “effect on plasma glucose concentration” value (STZ-diabetic rats [5]; various doses) of the same compound?
A: no affect

Q: What about the “MCP-1 protein expression (secreted, ELISA)” value (MCP-1 [6]) of the same compound?
A: inhibited MCP-1 protein expression in a concentration-dependent manner

Q: What about the “cell infiltration in the renal interstitium” value (kidneys of diabetic rats) of the same compound?
A: prevented cell infiltration

Q: And the “mesangial expansion and basement membrane thickening of the kidneys” value (kidneys of diabetic rats)?
A: prevented mesangial expansion and basement membrane thickening

Q: And the “collagen deposition and tubular degeneration in the kidney glomeruli (Trichrome staining)” value (kidneys of diabetic rats; [14])?
A: prevented collagen deposition and tubular degeneration

Q: And the “levels of PAS-positive materials in kidney glomeruli” value (kidneys of diabetic rats; [14])?
A: reduced the levels of PAS-positive materials

Q: And the “S100b-induced COX-2 mRNA expression” value (COX-2)?
A: profoundly suppressed

Q: What about the “S100b-induced RAGE mRNA expression” value (RAGE [7]) of the same compound?
A: profoundly suppressed

Q: What about the “cell viability (Trypan blue staining)” value (THP-1 cells) of the same compound?
A: viable

Q: And the “cell counts after incubation” value (THP-1 cells; THP-1, same concentrations as in S100b experiments, 24 hr)?
A: normal and statistically similar to the untreated cells

Q: What about the “effect on lipid metabolism” value (non-diabetic rats; non-diabetic animals) of the same compound?
A: no effect

Q: What about the “ACR (urinary albumin-to-creatinine ratio)” value (non-diabetic rats; [15]) of the same compound?
A: 0.42 ± 0.32 mg/mg

Q: And the HbA1c (non-diabetic rats; [15])?
A: 1.2 ± 0.1%

Q: What about the “Plasma Glucose” value (non-diabetic rats; [15]) of the same compound?
A: 8.9 ± 1.0 mmol/L

Q: And the HbA1c (STZ-diabetic rats [8]; [16])?
A: 2.9 ± 0.4 %

Q: What about the “Plasma Glucose” value (STZ-diabetic rats [8]; [16]) of the same compound?
A: 26.7 ± 2.4 mmol/L

Q: And the “ACR (urinary albumin-to-creatinine ratio)” value (STZ-diabetic rats [8]; 25 mg per liter drinking water daily, p < 0.05 vs. diabetic rats)?
A: 1.75 ± 1.43 mg/mg

Q: And the “rise in ACR” value (STZ-diabetic rats [8]; 25 and 50 mg/L doses statistically significant vs. untreated diabetic animals)?
A: inhibited the rise in ACR in almost dose-dependent manner

Q: What about the “S100b-induced MCP-1 mRNA expression” value (MCP-1 [9]) of the same compound?
A: profoundly suppressed
